Here are results for ten compounds from PubChem BioAssay (NCI).

Among the test systems are SF-295 CNS; TK-10 renal; SF-539 CNS; COLO 205 colon; HS 578T breast; SN12C renal; CCRF-CEM leukemia; BT-549 breast; OVCAR-8 ovarian; A549 NSCLC; SK-MEL-2 melanoma; LOX IMVI melanoma; HCC-2998 colon; SW-620 colon; SNB-75 CNS; SR leukemia; U251 CNS.
What all share (test): growth of human tumour cells (NCI), 48 h

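All cell lines were grown in 96-well plates and treated with compound for 48 hours. TGI denotes the concentration required for complete inhibition of growth.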 Where only a bound is given, the exact number is not on record here.

Consider `CCOC(=O)c1c(NC(=S)Nc2ccccc2)sc2c1CCN(C)C2`, for which the TGI in the test with SF-295 CNS, in the test with TK-10 renal, in the test on SF-539 CNS, with COLO 205 colon, in the test on HS 578T breast and in the test with SN12C renal was greater than 100 µM throughout. The TGI with CCRF-CEM leukemia, in the test with BT-549 breast, with OVCAR-8 ovarian, in the test with A549 NSCLC and in the test on SK-MEL-2 melanoma was greater than 100 µM in each case.
On to `COC(=O)C(Cc1nc2ccc(Cl)cc2[nH]c1=O)C(=O)C(=O)Nc1cc(C)ccc1C` (configuration not stated), for which the TGI in the test with SF-295 CNS, in the test with TK-10 renal, in the test on SF-539 CNS, in the test with COLO 205 colon, with LOX IMVI melanoma and in the test with SN12C renal was greater than 100 µM in each case. For the same compound, the TGI in the test on HCC-2998 colon, with CCRF-CEM leukemia, with SW-620 colon, with OVCAR-8 ovarian, in the test with SNB-75 CNS and in the test on SR leukemia was greater than 100 µM each time. Further, the TGI with U251 CNS, in the test with A549 NSCLC and in the test on SK-MEL-2 melanoma was greater than 100 µM each time.
Turning to `NC(=O)N/N=C\CC(O)(C(F)(F)Cl)C(F)(F)Cl`, the TGI with SF-295 CNS, in the test with TK-10 renal, in the test on SF-539 CNS, with COLO 205 colon, in the test on LOX IMVI melanoma and in the test on HS 578T breast was greater than 10 µM throughout. The TGI in the test on SN12C renal, in the test with HCC-2998 colon, with CCRF-CEM leukemia, in the test on SW-620 colon, in the test with OVCAR-8 ovarian and in the test with SNB-75 CNS was greater than 10 µM throughout. Further, the TGI in the test with SR leukemia, in the test on U251 CNS, in the test with A549 NSCLC and in the test with SK-MEL-2 melanoma was greater than 10 µM in each case.
Turning to `COc1cccc([C@@H]2C/C(=N\NC(=O)C(=O)N[C@@H](C)c3ccccc3)c3ccccc3N2)c1`, the TGI with SF-295 CNS is greater than 100 µM; in the test with TK-10 renal, greater than 100 µM; with SF-539 CNS, 30.4 µM; with COLO 205 colon it was greater than 100 µM; in the test on LOX IMVI melanoma, greater than 100 µM; in the test on HS 578T breast it was greater than 100 µM. The TGI in the test on SN12C renal, with HCC-2998 colon, in the test on CCRF-CEM leukemia, in the test with SW-620 colon, with SNB-75 CNS and in the test on U251 CNS was greater than 100 µM in each case. Also, the TGI with A549 NSCLC and with SK-MEL-2 melanoma was greater than 100 µM in each case.
As to `O=C(NC(CS)C(=O)O)c1c2ccccc2nc2ccccc12` (configuration not stated), the TGI in the test with SF-295 CNS was greater than 100 µM; with TK-10 renal, greater than 100 µM; in the test with SF-539 CNS it was greater than 100 µM; with COLO 205 colon, 23.5 µM; with LOX IMVI melanoma it was greater than 100 µM; with SN12C renal, greater than 100 µM. Besides, the TGI in the test on HCC-2998 colon is greater than 100 µM; in the test on CCRF-CEM leukemia, greater than 100 µM; in the test with SW-620 colon, greater than 100 µM; in the test with BT-549 breast, 58.5 µM; with OVCAR-8 ovarian, greater than 100 µM; with SNB-75 CNS it was greater than 100 µM. Also, the TGI in the test on SR leukemia, in the test with U251 CNS, with A549 NSCLC and with SK-MEL-2 melanoma was greater than 100 µM each time.
On to `Nc1ccc(Oc2ccc(C34CC5CC(C3)CC(c3ccc(Oc6ccc(N)cc6C(F)(F)F)cc3)(C5)C4)cc2)c(C(F)(F)F)c1`, for which the TGI is 79.9 µM with SF-295 CNS; 31.1 µM in the test on TK-10 renal; 37.1 µM with COLO 205 colon; 31.8 µM in the test on LOX IMVI melanoma; 42.6 µM in the test on HS 578T breast; greater than 100 µM in the test on SN12C renal. Besides, the TGI in the test with CCRF-CEM leukemia is greater than 100 µM; in the test with SW-620 colon, greater than 100 µM; in the test on BT-549 breast, 52.1 µM; with OVCAR-8 ovarian it was 29.5 µM; in the test with U251 CNS, 27.6 µM; in the test on A549 NSCLC it was 49 µM. Further, the TGI with SK-MEL-2 melanoma is 28.8 µM.
On to `O=C1c2ccccc2CC12Cc1cc3c(cc1C2)CCC3`, for which the TGI in the test with SF-295 CNS, in the test with TK-10 renal, with SF-539 CNS, in the test with COLO 205 colon, with LOX IMVI melanoma and in the test with HS 578T breast was greater than 100 µM in each case. For the same compound, the TGI with SN12C renal, in the test with HCC-2998 colon, with CCRF-CEM leukemia, with SW-620 colon, in the test with OVCAR-8 ovarian and with SNB-75 CNS was greater than 100 µM each time. In addition, the TGI in the test with SR leukemia was 57.5 µM; in the test with U251 CNS, greater than 100 µM; in the test with A549 NSCLC it was greater than 100 µM; in the test with SK-MEL-2 melanoma, greater than 100 µM.
With `CCOC(=O)C(=[N+]=[N-])C(=O)CSC#N`, the TGI in the test with SF-295 CNS was greater than 100 µM; in the test with TK-10 renal, greater than 100 µM; in the test with SF-539 CNS, 47.1 µM; with COLO 205 colon, greater than 100 µM; in the test with LOX IMVI melanoma, 61.9 µM; in the test with HS 578T breast, greater than 100 µM. For the same compound, the TGI in the test on SN12C renal, in the test on CCRF-CEM leukemia, in the test on SW-620 colon, in the test with BT-549 breast, with OVCAR-8 ovarian and in the test with U251 CNS was greater than 100 µM throughout. The TGI with A549 NSCLC and with SK-MEL-2 melanoma was greater than 100 µM in each case.
In the case of `COc1cc(/C=C2\CCC(C)C3=C2N=c2s/c(=C/c4ccc(Cl)cc4)c(=O)n2C3c2cc(OC)c(OC)c(OC)c2)cc(OC)c1OC` (configuration not stated), the TGI with TK-10 renal, with LOX IMVI melanoma, with HS 578T breast, with SN12C renal, in the test on CCRF-CEM leukemia and with SW-620 colon was greater than 100 µM in each case. Besides, the TGI in the test with OVCAR-8 ovarian, in the test on SNB-75 CNS, in the test on SR leukemia, in the test with U251 CNS, with A549 NSCLC and in the test with SK-MEL-2 melanoma was greater than 100 µM throughout.
In the case of `Cc1ccc(NC(=O)C2C3C=CC(O3)C2C(=O)O)cc1` (configuration not stated), the TGI with SF-295 CNS was greater than 100 µM; with TK-10 renal, greater than 100 µM; in the test on SF-539 CNS, greater than 100 µM; in the test on COLO 205 colon it was greater than 100 µM; with LOX IMVI melanoma, 47.4 µM; with SN12C renal it was greater than 100 µM. Also, the TGI with HCC-2998 colon was greater than 100 µM; in the test on CCRF-CEM leukemia it was greater than 100 µM; with SW-620 colon, 26.8 µM; in the test on OVCAR-8 ovarian it was greater than 100 µM; in the test on SNB-75 CNS it was greater than 100 µM; in the test with SR leukemia, greater than 100 µM. Moreover, the TGI in the test on U251 CNS, in the test with A549 NSCLC and with SK-MEL-2 melanoma was greater than 100 µM in each case.
